Target: Signal transducer and activator of transcription 3 (Homo sapiens, UniProt P40763)
Assay: Inhibition of human STAT3 expressed in human HepG2 cells incubated for 1.5 hrs by luciferase assay
Format: cell-based

Signal transducer and activator of transcription 3, sequence (P40763 whole entry): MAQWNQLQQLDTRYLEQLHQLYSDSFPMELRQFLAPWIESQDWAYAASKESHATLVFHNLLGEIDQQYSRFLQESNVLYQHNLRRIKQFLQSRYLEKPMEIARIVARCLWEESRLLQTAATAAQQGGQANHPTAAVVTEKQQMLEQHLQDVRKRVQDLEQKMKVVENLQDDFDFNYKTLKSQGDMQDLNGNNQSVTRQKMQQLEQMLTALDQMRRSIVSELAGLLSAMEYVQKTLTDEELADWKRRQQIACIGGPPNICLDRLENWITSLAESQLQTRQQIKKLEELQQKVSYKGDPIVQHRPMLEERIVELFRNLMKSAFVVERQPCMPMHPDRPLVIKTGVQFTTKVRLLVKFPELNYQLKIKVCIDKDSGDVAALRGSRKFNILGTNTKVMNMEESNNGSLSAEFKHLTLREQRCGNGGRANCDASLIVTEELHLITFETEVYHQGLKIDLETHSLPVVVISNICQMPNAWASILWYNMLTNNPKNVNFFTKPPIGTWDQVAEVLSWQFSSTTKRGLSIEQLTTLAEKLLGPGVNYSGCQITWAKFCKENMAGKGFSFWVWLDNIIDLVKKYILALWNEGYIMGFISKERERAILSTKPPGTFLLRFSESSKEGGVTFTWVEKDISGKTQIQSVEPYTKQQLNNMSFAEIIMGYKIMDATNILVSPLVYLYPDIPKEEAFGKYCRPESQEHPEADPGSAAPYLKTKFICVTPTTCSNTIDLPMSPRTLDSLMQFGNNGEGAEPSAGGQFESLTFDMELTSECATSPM

IC50: 200 nM
SMILES: CC(CO)C1OC(=O)C=C2C13OC3CC13COC(=O)C1(C)CC(O)CC23C (stereo unspecified)

Reference: ChEMBL document CHEMBL5233227, “Allosteric inhibitors of the STAT3 signaling pathway” (Eur J Med Chem, 2020)
